Results taken from ChEMBL document CHEMBL6071153, “Design, synthesis, and evaluation of antitumor activity in Pseudolaric acid B Azole derivatives: Novel and potent angiogenesis inhibitor via regulation of the PI3K/AKT and MAPK mediated HIF-1/VEGF signaling pathway” (Eur J Med Chem, 2024).
The source made the active and inactive calls. The calls are words filed in the database; no cut-off is given here.

Legend:
[1] = Inhibition of HIF-1 transcriptional activity in human HCT-116 cells preincubated for 1 hr under normoxic condition followed by 24 hrs incubation under hypoxic condition by luciferase reporter assay; format: cell-based
[2] = Toxicity in Balb/c mouse xenografted with human SiHa cells assessed as reduction in body weight at 30 mg/kg,ip administration measured after 22 days; format: organism-based; settings: in vivo, 528 h, time 22 day
HUVEC [3] = experiment: Inhibition of cell migration in human HUVEC cells at 10 uM incubated for 48 hrs under hypoxic condition by microscopic analysis relative to PAB; format: functional
SiHa [4] = experiment: Inhibition of VEGFR in human SiHa cells assessed as decrease in intracellular VEGFR protein expression at 10 uM incubated for 24 hrs under hypoxic condition by immunofluorescence staining based analysis relative to M2; format: cell-based
SiHa [5] = experiment: Cytotoxicity against human SiHa cells assessed as inhibition of cell growth incubated for 24 hrs under normoxic condition by MTT assay; format: functional, cell-based
HUVEC [6] = experiment: Antiangiogenic activity against human HUVEC cells assessed as inhibition of blood vessel formation at 10 uM incubated for 4 hrs under hypoxic condition by fluorescence microscopic analysis; format: functional, cell-based
[7] = Inhibition of PI3K/AKT/mTOR signalling pathway in human SiHa cells assessed as downregulation of JNK phosphorylation at 10 uM incubated for 24 hrs under hypoxic condition by Western blotting analysis; format: cell-based
SiHa [8] = experiment: Inhibition of hypoxia-induced HIF-1alpha accumulation in human SiHa cells at 10 uM incubated for 24 hrs under hypoxic condition by Western blotting analysis; format: functional, cell-based
HUVEC [9] = experiment: Inhibition of cell migration in human HUVEC cells at 10 uM incubated for 48 hrs under hypoxic condition by microscopic analysis relative to M2; format: functional, cell-based
[10] = Toxicity in Balb/c mouse assessed as fatality at 50 mg/kg,ip administration for 1 week; format: organism-based; settings: in vivo, 168 h, time 1 weeks
SiHa [11] = experiment: Antitumor activity against human SiHa cells xenografted in Balb/c mouse assessed as reduction in tumor weight at 30 mg/kg,ip administration measured after 22 days; format: functional, organism-based; settings: time 22.0 day
SiHa [12] = experiment: Antitumor activity against human SiHa cells xenografted in Balb/c mouse assessed as reduction in tumor growth at 30 mg/kg,ip administration measured after 22 days; format: functional, organism-based; settings: time 22.0 day
[13] = Toxicity in Balb/c mouse assessed as change in animal fur at 50 mg/kg,ip administration for 1 week; format: organism-based; settings: in vivo, 168 h, time 1 weeks
[14] = Inhibition of VEGFR mediated endocytosis in human SiHa cells incubated for 24 hrs under hypoxic condition by ELISA; format: cell-based
SiHa [15] = experiment: Antitumor activity against human SiHa cells xenografted in Balb/c mouse assessed as reduction in tumor volume at 30 mg/kg,ip administration measured after 22 days; format: functional, organism-based; settings: time 22.0 day
SiHa [16] = experiment: Inhibition of hypoxia-induced HIF-1beta accumulation in human SiHa cells at 10 uM incubated for 24 hrs under hypoxic condition by Western blotting analysis; format: functional, cell-based
MDA-MB-231 [17] = experiment: Cytotoxicity against human MDA-MB-231 cells assessed as inhibition of cell growth incubated for 96 hrs under hypoxic condition by MTT assay; format: functional, cell-based; settings: MDA-MB-231, 96 h
SiHa [18] = experiment: Antitumor activity against human SiHa cells xenografted in Balb/c mouse assessed as reduction in HIF-1alpha expression in tumor at 30 mg/kg,ip administration measured after 22 days by immunohistochemical staining based analysis; format: functional, organism-based; settings: time 22.0 day
SiHa [19] = experiment: Inhibition of hypoxia-induced HIF-1alpha accumulation in human SiHa cells at 0.3 to 10 uM incubated for 24 hrs under hypoxic condition by Western blotting analysis; format: functional, cell-based; settings: dose 0.3-10 µM
[20] = Inhibition of PI3K/AKT/mTOR signalling pathway in human SiHa cells assessed as downregulation of mTOR protein expression at 0.3 to 10 uM incubated for 24 hrs under hypoxic condition by Western blotting analysis; format: cell-based; settings: dose 0.3-10 µM
[21] = Inhibition of PI3K/AKT/mTOR signalling pathway in human SiHa cells assessed as downregulation of ERK1/2 protein expression at 10 uM incubated for 24 hrs under hypoxic condition by Western blotting analysis; format: cell-based
SiHa [22] = experiment: Inhibition of VEGFR in human SiHa cells incubated for 24 hrs under hypoxic condition by ELISA; format: cell-based
HUVEC [23] = experiment: Inhibition of cell migration in human HUVEC cells at 3 uM incubated for 48 hrs under hypoxic condition by microscopic analysis relative to PAB; format: functional
HUVEC [24] = experiment: Inhibition of cell migration in human HUVEC cells at 1 uM incubated for 48 hrs under hypoxic condition by microscopic analysis relative to PAB; format: functional
SiHa [25] = experiment: Inhibition of hypoxia-induced HIF-1alpha accumulation in human SiHa cells assessed as decrease in nuclear HIF-1alpha level at 10 uM incubated for 24 hrs under hypoxic condition by immunofluorescence staining based analysis; format: functional, cell-based
[26] = Inhibition of PI3K/AKT/mTOR signalling pathway in human SiHa cells assessed as downregulation of p38 phosphorylation at 10 uM incubated for 24 hrs under hypoxic condition by Western blotting analysis; format: cell-based
HUVEC [27] = experiment: Inhibition of cell invasion in human HUVEC cells at 1 to 10 uM incubated for 48 hrs under hypoxic condition by crystal violet staining based microscopic analysis relative to PAB; format: functional; settings: dose 1-10 µM
[28] = Inhibition of PI3K/AKT/mTOR signalling pathway in human SiHa cells assessed as downregulation of ERK1/2 phosphorylation at 10 uM incubated for 24 hrs under hypoxic condition by Western blotting analysis; format: cell-based
HUVEC [29] = experiment: Inhibition of cell migration in human HUVEC cells incubated upto 48 hrs under hypoxic condition by microscopic analysis; format: functional, cell-based
[30] = Inhibition of PI3K/AKT/mTOR signalling pathway in human SiHa cells assessed as downregulation of JNK protein expression at 10 uM incubated for 24 hrs under hypoxic condition by Western blotting analysis; format: cell-based
[31] = molecular target: Hypoxia-inducible factor 1-alpha (Homo sapiens) (UniProt Q16665); experiment: Inhibition of HIF-1alpha in human SiHa cells assessed as downregulation of HIF-1alpha protein expression incubated upto 60 mins under hypoxic condition by Western blotting analysis; format: cell-based
[32] = Inhibition of PI3K/AKT/mTOR signalling pathway in human SiHa cells assessed as downregulation of PI3K protein expression at 0.3 to 10 uM incubated for 24 hrs under hypoxic condition by Western blotting analysis; format: cell-based; settings: dose 0.3-10 µM
HUVEC [33] = experiment: Antiangiogenic activity against human HUVEC cells assessed as inhibition of blood vessel formation at 1 to 10 uM incubated for 4 hrs under hypoxic condition by fluorescence microscopic analysis; format: functional, cell-based; settings: dose 1-10 µM
HUVEC [34] = experiment: Inhibition of cell migration in human HUVEC cells at 1 to 10 uM under hypoxic condition by microscopic analysis; format: functional, cell-based; settings: dose 1-10 µM, TDE = time-dependent effect
SiHa [35] = experiment: Antitumor activity against human SiHa cells xenografted in Balb/c mouse assessed as reduction in VEGF expression in tumor at 30 mg/kg,ip administration measured after 22 days by immunohistochemical staining based analysis; format: functional, organism-based; settings: time 22.0 day
SiHa [36] = experiment: Inhibition of hypoxia-induced HIF-1beta accumulation in human SiHa cells at 0.3 to 10 uM incubated for 24 hrs under hypoxic condition by Western blotting analysis; format: functional, cell-based; settings: dose 0.3-10 µM
SiHa [37] = experiment: Inhibition of VEGFR in human SiHa cells assessed as decrease in intracellular VEGFR protein expression at 10 uM incubated for 24 hrs under hypoxic condition by immunofluorescence staining based analysis; format: cell-based
[38] = molecular target: Hypoxia-inducible factor 1-alpha (Homo sapiens) (UniProt Q16665); experiment: Inhibition of HIF-1alpha in human SiHa cells assessed as downregulation of HIF-1alpha protein expression incubated upto 60 mins under hypoxic condition in presence of MG-132 by Western blotting analysis; format: cell-based
[39] = molecular target: Hypoxia-inducible factor 1-alpha (Homo sapiens) (UniProt Q16665); experiment: Inhibition of HIF-1alpha in human SiHa cells assessed as downregulation of HIF-1alpha protein expression incubated upto 60 mins under hypoxic condition in presence of CHX by Western blotting analysis; format: cell-based
[40] = Inhibition of PI3K/AKT/mTOR signalling pathway in human SiHa cells assessed as downregulation of p38 protein expression at 10 uM incubated for 24 hrs under hypoxic condition by Western blotting analysis; format: cell-based
SiHa [41] = experiment: Inhibition of HIF-1beta in human SiHa cells assessed as downregulation of HIF-1beta protein expression incubated upto 60 mins under hypoxic condition in presence of MG-132 by Western blotting analysis; format: cell-based
[42] = Inhibition of PI3K/AKT/mTOR signalling pathway in human SiHa cells assessed as downregulation of AKT protein expression at 0.3 to 10 uM incubated for 24 hrs under hypoxic condition by Western blotting analysis; format: cell-based; settings: dose 0.3-10 µM
MDA-MB-231 [43] = experiment: Cytotoxicity against human MDA-MB-231 cells assessed as fold increase in inhibition of cell growth incubated for 96 hrs under hypoxic condition by MTT assay relative to doxorubicin; format: functional
MDA-MB-231 [44] = experiment: Cytotoxicity against human MDA-MB-231 cells assessed as fold increase in inhibition of cell growth incubated for 96 hrs under hypoxic condition by MTT assay relative to 4-hydroxycoumarin; format: functional

Chain of Hypoxia-inducible factor 1-alpha (Homo sapiens) (Q16665 whole entry, looked up): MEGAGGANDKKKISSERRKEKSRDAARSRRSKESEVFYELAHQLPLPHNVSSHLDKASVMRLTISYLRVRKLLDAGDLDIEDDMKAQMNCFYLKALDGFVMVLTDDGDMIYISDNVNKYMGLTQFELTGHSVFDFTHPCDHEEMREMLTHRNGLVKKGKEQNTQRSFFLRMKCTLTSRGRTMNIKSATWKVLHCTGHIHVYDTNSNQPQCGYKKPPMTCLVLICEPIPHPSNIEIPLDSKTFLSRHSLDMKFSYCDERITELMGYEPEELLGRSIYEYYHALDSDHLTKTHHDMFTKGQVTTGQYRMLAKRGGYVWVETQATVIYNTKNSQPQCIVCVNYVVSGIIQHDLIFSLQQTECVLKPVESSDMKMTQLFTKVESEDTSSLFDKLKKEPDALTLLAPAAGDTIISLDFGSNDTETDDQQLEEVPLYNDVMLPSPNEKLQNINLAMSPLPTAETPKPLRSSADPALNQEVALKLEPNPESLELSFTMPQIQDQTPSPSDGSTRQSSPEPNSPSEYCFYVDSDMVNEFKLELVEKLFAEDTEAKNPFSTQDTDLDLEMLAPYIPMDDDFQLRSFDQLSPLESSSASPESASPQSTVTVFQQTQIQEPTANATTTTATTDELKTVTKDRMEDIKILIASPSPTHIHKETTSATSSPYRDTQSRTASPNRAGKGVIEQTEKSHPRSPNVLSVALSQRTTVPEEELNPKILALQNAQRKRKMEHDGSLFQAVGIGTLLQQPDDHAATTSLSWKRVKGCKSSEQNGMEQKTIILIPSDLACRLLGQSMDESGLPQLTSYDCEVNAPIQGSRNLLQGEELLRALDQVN

## C[C@H]1[C@H](C)CC[C@]2(C(=O)OCCCn3ncn(-c4ccccc4)c3=O)CC[C@]3(C)C(=CC[C@@H]4[C@@]5(C)CCC(O)C(C)(C)[C@@H]5CC[C@]43C)[C@H]12 (stereo not given in full)
[1]
  IC50: 36.9 µM

## O=c1[nH]cc(F)c(=O)[nH]1 [FLUOROURACIL]
[2]
  Activity: Non-Toxic

## COC(=O)C1=CC[C@@]23CC[C@@H]([C@@](C)(/C=C/C=C(\C)C(=O)O)OC2=O)[C@@]3(OC(C)=O)CC1 [PSEUDOLARIC ACID B]
HUVEC [3]
  inhibition at 10 µM: 68.5%
SiHa [4]
  inhibition: Active
SiHa [5]
  IC50: > 30 µM
HUVEC [6]
  Activity: Active
[7]
  inhibition: inactive
SiHa [8]
  inhibition: Active
HUVEC [9]
  inhibition: Active
[10]
  Activity: Non-Toxic
SiHa [11]
  Activity: Active
SiHa [12]
  Activity: Active
[13]
  Activity: Non-Toxic
[14]
  IC50: 5.54 µM
[2]
  Activity: Non-Toxic
SiHa [15]
  Activity: Active
SiHa [16]
  inhibition: Active

## O=c1cc(O)c2ccccc2o1 [4-HYDROXYCOUMARINS]
MDA-MB-231 [17]
  IC50: > 100 µM

## OC1CCN(CCOc2cccc(Cn3nc(-c4nc(-c5ccc(OC(F)(F)F)cc5)no4)c4ccccc43)c2)CC1
[1]
  IC50: 0.55 µM

## CN1CCN(CCOc2cccc(Cn3nc(-c4nc(-c5ccc(OC(F)(F)F)cc5)no4)c4ccccc43)c2)CC1
[1]
  IC50: 0.62 µM

## COC(=O)C1=CC[C@@]23CC[C@@H]([C@@](C)(/C=C/C=C(\C)C(=O)OCC(=O)NCc4cn(-c5ccc(Cl)cc5)nn4)OC2=O)[C@@]3(OC(C)=O)CC1
SiHa [18]
  Activity: Active
SiHa [19]
  inhibition: Active
HUVEC [3]
  inhibition at 10 µM: 88.8%
[20]
  inhibition: Active
[21]
  inhibition: inactive
SiHa [22]
  inhibition: Dose-Dependent Effect
HUVEC [23]
  inhibition at 3 µM: 66.1%
HUVEC [24]
  inhibition at 1 µM: 35.6%
SiHa [25]
  inhibition: Active
SiHa [5]
  IC50: > 30 µM
[7]
  inhibition: Active
[10]
  Activity: Non-Toxic
[26]
  inhibition: Active
HUVEC [27]
  inhibition: Active
[28]
  inhibition: Active
HUVEC [29]
  inhibition: Dose-Dependent Effect
[30]
  inhibition: inactive
SiHa [11]
  Activity: Active
[31]
  inhibition: Active
SiHa [12]
  Activity: Active
[32]
  inhibition: Active
[13]
  Activity: Non-Toxic
HUVEC [33]
  Activity: Active
HUVEC [34]
  inhibition: Tde
[14]
  IC50: 0.68 µM
SiHa [35]
  Activity: Active
[2]
  Activity: Non-Toxic
SiHa [15]
  Activity: Active
SiHa [36]
  inhibition: Active
SiHa [37]
  inhibition: Active
[38]
  inhibition: Active
[39]
  inhibition: inactive
[40]
  inhibition: inactive
SiHa [41]
  inhibition: inactive
[42]
  inhibition: Active

## COC(=O)C1=CC[C@@]23CC[C@@H]([C@@](C)(/C=C/C=C(\C)C(=O)OCc4nnc(-c5ccc(OC)cc5)o4)OC2=O)[C@@]3(OC(C)=O)CC1
SiHa [5]
  IC50: > 30 µM
[14]
  IC50: > 5 µM

## COC(=O)C1=CC[C@@]23CC[C@@H]([C@@](C)(/C=C/C=C(\C)C(=O)OCc4cc(-c5ccc(OC)cc5)no4)OC2=O)[C@@]3(OC(C)=O)CC1
SiHa [5]
  IC50: > 30 µM
[14]
  IC50: > 5 µM

## COc1ccc(NC(=O)c2ccc(-n3cc(COc4cc(=O)oc5ccccc45)nn3)cc2)cc1OC
MDA-MB-231 [43]
  fold change (FC): 20
MDA-MB-231 [44]
  fold change (FC): 5000

## COC(=O)C1=CC[C@@]23CC[C@@H]([C@@](C)(/C=C/C=C(\C)C(=O)OCc4cn(-c5ccccc5)nn4)OC2=O)[C@@]3(OC(C)=O)CC1
SiHa [5]
  IC50: > 30 µM
[14]
  IC50: > 5 µM

## COC(=O)C1=CC[C@@]23CC[C@@H]([C@@](C)(/C=C/C=C(\C)C(=O)NCc4cn(-c5ccccc5)nn4)OC2=O)[C@@]3(OC(C)=O)CC1
SiHa [5]
  IC50: > 30 µM
[14]
  IC50: 2.91 µM
